Assay results from patent publication US11426371B2, “Compositions and methods for treating cancer” (University of Virginia Patent Foundation, priority 2017, dated 2022).
“Also recorded” adds a separate entry of the source. Read-outs that look alike come from different tables or passages of the source.

Legend:
[1] = system: primary AML patient samples; test: Colony formation of primary AML patient cells; type: cell-based, human; details: over several days
Procedure: (§1) Multiple primary patient (Pt) AML cells were treated with various doses of SACLAC and assayed for apoptosis at 48 hours and colony formation over several days. […] The ordinate represents Colonies (as % of control) and the abscissa represents the concentration of SACLAC (μM). Unt=untreated; DMSO=dimethyl sulfoxide vehicle control.
(§2) Further, effects on patient samples strongly support the potential for clinical relevance of SACLAC. […] Based on the data presented here, we propose that use of SACLAC for treatment of AML is novel and clinically promising.

acid ceramidase (AC) = molecular target: T1, acid ceramidase (AC) (Homo sapiens, UniProt Q13510); test: AC activity in AML cell lines, fluorogenic AC substrate; type: cell-based; set-up: endogenous in cells; host or cells: HL60/VCR, OCI-AML2, THP-1 human AML cell lines
T1 sequence (Q13510 143-395 limits assumed): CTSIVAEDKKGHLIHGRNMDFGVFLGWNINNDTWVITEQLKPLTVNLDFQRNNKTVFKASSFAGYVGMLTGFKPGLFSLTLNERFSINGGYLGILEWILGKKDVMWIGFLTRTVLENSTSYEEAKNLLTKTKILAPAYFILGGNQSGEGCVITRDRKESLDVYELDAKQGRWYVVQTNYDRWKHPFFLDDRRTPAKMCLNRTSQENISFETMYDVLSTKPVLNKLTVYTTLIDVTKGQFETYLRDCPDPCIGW
T1 sequence (Q13510 22-142 limits assumed): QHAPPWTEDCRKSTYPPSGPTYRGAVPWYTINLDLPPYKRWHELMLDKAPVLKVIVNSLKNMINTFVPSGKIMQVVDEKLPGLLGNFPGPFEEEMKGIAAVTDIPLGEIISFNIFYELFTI
Procedure: Ceramide analog SACLAC (FIG. 1A) inhibits AC activity in representative human AML cell lines (FIG. 1B) HL60/VCR and (FIG. 1C) OCI-AML2 after 24 hours. Activity was assessed by incubation with a fluorogenic AC substrate. Published AC inhibitor LCL204 is included for comparison.
The ordinate represents AC Activity as percent of control and the abscissa represents SACLAC or LCL204 concentration.

[2] = Maximum tolerated dose in vivo; details: preliminary results (not shown)
Procedure: Preliminary results (not shown) indicate a maximum tolerated dose in vivo of at least about 50 mg/kg body weight. Pharmacokinetic studies are in progress to measure any accumulation of SACLAC in the blood following treatment. Initial studies are based on doses of 20 or 40 mg/kg body weight.

[3] = Solubility in vehicles for i.v. drug delivery; type: physicochemical
[4] = system: Human AML cell lines (n = 30); test: Cell viability, average over the panel of AML cell lines; type: cell-based; details: mean over 30 human AML cell lines
Procedure: Representative human AML cell lines (FIG. 2A; upper and lower panels) HL60/VCR and (FIG. 2B; upper and lower panels) OCI-AML2 were treated with SACLAC for 24 and 48 hours. Viability was assessed by MTS assay at 24 and 48 hours and apoptosis was assessed by flow cytometry at 48 hours. Upper panels represent % viability and lower panels indicate % apoptosis.
Two representative human-derived AML cell lines, HL60/VCR and OCI-AML2, are shown. These studies have been expanded to a large panel of additional human AML cell lines (n=30, Table 1).

[5] = system: primary AML patient samples; test: Apoptosis in primary AML patient cells; type: cell-based, human; details: 48 hours, nutrient- and growth factor-rich culture
Procedure: as §1, §2

CCCCCCCCCCCCCCC[C@@H](O)[C@H](CO)NC(=O)CCl [SACLAC, 2-chloro-N-((2S,3R)-1,3-dihydroxyoctadecan-2-yl)acetamide]
colony formation [1]: substantially reduced colony formation
AC activity (acid ceramidase (AC); HL60/VCR and OCI-AML2, 24 hours): decreased AC activity at all tested doses; also recorded: nearly complete inhibition at nanomolar concentrations
AC activity, compared with LCL204 (acid ceramidase (AC); HL60/VCR, THP-1 and OCI-AML2 cells, 24 h): inhibited AC activity more potently than LCL204
MTD [2]: ≥ 50 mg/kg
solubility in vehicles for i.v. drug delivery [3]: low solubility
EC50 ([4]; 24 h, read-out: EC50 24 h, Average): 2.3 µM
EC50 ([4]; 48 h, read-out: EC50 48 h, Average): 1.9 µM
apoptosis [5]: effectively induced apoptosis
